The source of these data is publication PMC9108603, “Microbial Metabolite Inspired β‐Peptide Polymers Displaying Potent and Selective Antifungal Activity” (Advanced Science, 2022).

The MIC is the lowest concentration that inhibits growth of the organism.

Data set [1] has as its system C. albicans. The data set can be described thus: MIC assay (in vitro antifungal assay). It counts as cell-based, Candida albicans. The settings on record: for MIC: Candida albicans. On the procedure:
(§1) In vitro antifungal assays. The MIC assays for C. albicans (K1, SC5314, Gu5, ATCC90028, R01, R02, R03 and R04 strains) and C. neoformans (H99, MYA737 and JEC21 strains) were conducted according to a previously described protocol. The cultured fungal cells were collected at 2.5 × 10^3 CFU/mL in RPMI 1640 medium to give the working suspension. Two- […]
Then 50 µL of the cell suspension was added to each well. Wells containing cells in RPMI without any polymer or antifungal drug were used as drug-free controls, and wells containing RPMI medium only were used as cell-free controls. The plate was gently stirred for 10 seconds and then incubated at 30 °C. After C. albicans and C. neoformans cells were incubated for 24 h and 48 h, respectively, fungal cell growth was checked visually. […]

Data set [2] concerns C. albicans. The data set can be described thus: MFC assay, plating after the MIC test. Further: kills > 99.9%. It counts as cell-based. The settings on record: Candida albicans. On the procedure: as §1
(§2) Then 50 µL of the cell suspension was added to each well. Wells containing cells in RPMI without any polymer or antifungal drug were used as drug-free controls, and wells containing RPMI medium only were used as cell-free controls. The plate was gently stirred for 10 seconds and then incubated at 30 °C. After C. albicans and C. neoformans cells were incubated for 24 h and 48 h, respectively, fungal cell growth was checked visually. The MIC values were identified as the lowest concentration […]
(§3) The MFC assay for Candida and Cryptococcus was conducted after the MIC test.
(§4) An aliquot of 3 µL premixed suspension from each well was plated on the yeast extract-peptone-dextrose (YPD) agar. The plates were incubated at 30 °C for 24 h and 48 h, respectively, for C. albicans cells and C. neoformans cells. Then the plate was inspected visually for colony formation. […]

Another data set relates to C. neoformans. The data set is described as follows: MFC assay, plating after the MIC test. Further: kills > 99.9%. The settings on record: Cryptococcus neoformans, 48 h. It counts as cell-based. The procedure:
as §1, §2, §3, §4

For data set [3], the system named is C. albicans and C. neoformans. The data set can be described thus: MIC/MFC, summary over all fungal strains. It counts as cell-based, Candida albicans, Cryptococcus neoformans. The procedure: as §1
plate to give 50 µL compound solution in each well. Then 50 µL of the cell suspension was added to each well. Wells containing cells in RPMI without any polymer or antifungal drug were used as drug-free controls, and wells containing RPMI medium only were used as cell-free controls. The plate was gently stirred for 10 seconds and then incubated at 30 °C. After C. albicans and C. neoformans cells were incubated for 24 h and 48 h, respectively, fungal cell growth was checked visually. The MIC values were identified as the lowest concentration […]
C. albicans . The MFC assay for Candida and Cryptococcus was conducted after the MIC test.
as §4

The subject of a further data set is C. albicans SC5314. The data set can be described thus: Biofilm-induced fungal keratitis model. It counts as in vivo, mouse (male BALB/c). The settings on record: 10 μL every 5 min for 1 h, then every 30 min for 7 h, versus saline, n = 10. The procedure:
Medicine (Accreditation number of the laboratory: SHDSYY-2021-1729). The experiment […]
method. […] AmpB was
(2.5% DMSO in final solution).
The organs (kidney, liver, and
14th day for histological analysis and blood biochemistry analysis.
30 min during the next 7 h.
C. albicans biofilm formation on contact lenses. The contact lenses (Biomedic ®, Cooper […]
Then the discs were transferred to a […]
and incubated at rt with shaking at 100 rpm. After 6 hours of incubation, the suspension was […]
addition of 150 μL fresh RPMI medium into each well. […]
All mice were killed and the eyeballs of each mouse were collected immediately 30 min after the administration of the last eye drop. Ten eyeballs from each group were homogenized for quantitative analysis of fungal counts with the number of CFUs expressed as mean log (CFU per eye), and the remaining four eyeballs were collected for histological analysis. […]
After incubation for 24 h at 30 °C, the colonies were counted and the number of CFUs was […]
expressed as mean log 10 (CFU per eye). […]
Statistical Analysis. […] Significance between two groups was determined by two-tailed t-test. […] All results were expressed as mean values ± s.d. n = 3 for each in vitro statistical analysis. n = 8 or 10 for each in vivo statistical analysis. […]

A further data set has as its system ICR mice. The data set is described as follows: In vivo acute toxicity, single IV injection.

Converted amounts (≈) assume the structure as drawn. Read-outs that look alike come from different tables or passages of the source.

Protocol for ICR mice: In vivo acute toxicity. All animal procedures were performed in accordance with the
Guidelines for Care and Use of Laboratory Animals of the Shanghai Tenth People’s Hospital
(License number: SYXK( 沪)-2021-0012), and experiments were approved by the Animal
Ethics Committee of the Shanghai Tenth People’s Hospital, Tongji University School of
was performed on 6-weeks old female ICR mice (n = 10) using the previously reported
prepared in DMSO and further diluted into sterile saline to a final concentration of 0.3 mg/mL
and 3 mg/kg, respectively, and mice injected with saline were used as controls. After a single
injection, all survival mice were weighed daily for 14 days. The organs (kidney, liver, and
spleen) (n = 2) and blood of mice treated by PDAP 20 or saline (n = 8) were collected on the

Turning to `C[C@@H]1[C@H](O)[C@@H](C)/C=C/C=C/C=C/C=C/C=C/C=C/C=C/[C@H](O[C@@H]2O[C@H](C)[C@@H](O)[C@H](N)[C@@H]2O)C[C@@H]2O[C@](O)(C[C@@H](O)C[C@@H](O)[C@H](O)CC[C@@H](O)C[C@@H](O)CC(=O)O[C@H]1C)C[C@H](O)[C@H]2C(=O)O` [AmpB, amphotericin B], the MIC with C. albicans [1] (24 h, read-out: MIC C. albicans R01) came to 1.2 µg/mL (≈ 1.3 µM); in the data set on C. albicans [1] (24 h, read-out: MIC C. albicans R04), 1.6 µg/mL (≈ 1.73 µM); in the data set with C. albicans [1] (ATCC90028, 24 h, read-out: MIC C. albicans ATCC90028), 1.6 µg/mL (≈ 1.73 µM); with C. albicans [1] (SC5314, 24 h, read-out: MIC C. albicans SC5314) it was 1.6 µg/mL (≈ 1.73 µM). Moreover, the MFC in the data set on C. albicans [2] (24 h, read-out: MFC C. albicans R01) was found to be 1.6 µg/mL (≈ 1.73 µM); in the data set on C. albicans [2] (24 h, read-out: MFC C. albicans R03) it was 1.6 µg/mL (≈ 1.73 µM); in the data set with C. albicans [2] (ATCC90028, 24 h, read-out: MFC C. albicans ATCC90028), 1.6 µg/mL (≈ 1.73 µM); in the data set with C. albicans [2] (SC5314, 24 h, read-out: MFC C. albicans SC5314), 1.6 µg/mL (≈ 1.73 µM); with C. neoformans (read-out: MFC C. neoformans JEC21) it was 1.6 µg/mL (≈ 1.73 µM); in the data set with C. neoformans (read-out: MFC C. neoformans MYA737) it was 1.6 µg/mL (≈ 1.73 µM). Also, the “MIC against all strains of C. albicans and C. neoformans (range)” value in data set [3] lay within 1.2 to 3.1 µg/mL. Moreover, the “Reduction of colonies, log CFU per eye” value in the data set with C. albicans SC5314 (AmpB 1 mg mL^−1 eye drops) was found to be 1.8 log CFU per eye. In the data set with ICR mice (single IV dose of 3 mg kg^−1, ICR mice, n = 10), the “Mice died within 48 h” value is reported as 90%.
For the compound poly(DL‐diaminopropionic acid) [PDAP20], the minimal inhibitory concentration (MIC) at high fungal cell concentration (TEM conditions) in the data set with C. albicans [1] (1.0 × 10^8 CFU mL^−1, fungal species not stated at the place) came out at 50 µg/mL. For the same compound, the “MIC at high fungal cell concentration (other mechanism experiments)” value against C. albicans [1] (3.0 × 10^6 CFU mL^−1, fungal species not stated at the place) was 12.5 µg/mL. In the data set on C. albicans [1] (K+ up to 20 × 10^−3 M, C. albicans K1), the “Effect of increasing K+ on antifungal activity” value is given as “didn't affect”. Besides, the “MIC C. albicans K1, standard MIC test in RPMI 1640” value in the data set on C. albicans [1] (Na+ 103 mM, K+ 5.4 mM) was determined as 0.8 µg/mL. Besides, the “MIC C. albicans K1, K+ ↑” value was 0.8 µg/mL against C. albicans [1] (Na+ 103 mM, K+ 10 mM) and 0.8 µg/mL in the data set with C. albicans [1] (Na+ 103 mM, K+ 20 mM). The “MIC C. albicans K1, physiological salt concentration” value in the data set with C. albicans [1] (Na+ 150 mM, K+ 5.4 mM) came to 1.6 μg/mL. In addition, the “MIC C. albicans K1, Na+ ↑” value with C. albicans [1] (Na+ 200 mM, K+ 5.4 mM) worked out at 3.1 µg/mL; against C. albicans [1] (Na+ 300 mM, K+ 5.4 mM) it was 6.3 µg/mL. For the same compound, the “MIC C. albicans K1, Na+ ↑, K+ ↑” value in the data set on C. albicans [1] (Na+ 300 mM, K+ 20 mM) was found to be 6.3 µg/mL. In the data set with C. albicans [1] (Na+ from 150 × 10^−3 to 300 × 10^−3 M), the “MIC C. albicans K1 on increase of Na+ (range)” value fell in the range of 1.6 to 6.3 µg/mL. Further, in data set [3], the “MIC against all strains of C. albicans and C. neoformans (range)” value lay within 0.1 to 0.8 µg/mL. The “Reduction of colonies, log CFU per eye” value with C. albicans SC5314 (PDAP20 15 mg mL^−1 eye drops) amounted to 1.2 log CFU per eye. Also, in the data set on ICR mice (single IV dose of 100 mg kg^−1, ICR mice, n = 10, 14 days), the “Survival after IV injection” value was “all mice survived”. In addition, the Body weight result in the data set with ICR mice (single IV dose of 100 mg kg^−1, daily for 14 days, n = 10) is reported as “normal body weight compared to the saline group”. Moreover, the “H&E histology of kidney, liver and spleen” value in the data set on ICR mice (single IV dose of 100 mg kg^−1, day 14, n = 2) is given as “no obvious toxicity on major organs”. The “Blood biochemistry (K+, Na+, ALT, AST, BUN, CREA)” value with ICR mice (single IV dose of 100 mg kg^−1, day 14, n = 8) is given as “did not cause significant changes in blood biochemical indicators”.
